Measured values taken from ChEMBL document CHEMBL3808341, “Natural nitric oxide (NO) inhibitors from Chloranthus japonicus” (Bioorg Med Chem Lett, 2016).

What was measured:
RAW264.7 [1] = test: Inhibition of LPS-induced NO production in mouse RAW264.7 cells after 24 hrs by Griess assay; format: functional, cell-based; settings: RAW264.7, 24 h
RAW264.7 [2] = test: Inhibition of LPS-induced NO production in mouse RAW264.7 cells at 50 uM after 24 hrs by Griess assay; format: functional; settings: RAW264.7, 24 h

C=C1[C@H]2C[C@H]2[C@]2(C)[C@@H]3C[C@@]4(O)C5=C(C6=C(C)C(=O)O[C@]6(OCCCC)[C@H](O)[C@@]5(C)[C@@H]5C[C@@H]54)[C@@]34OC(=O)C(C)=C4C[C@@H]12
IC50 (RAW264.7 [1]): 39.4 µM

C=C1[C@H]2C[C@H]2[C@]2(C)[C@@H]3C[C@@]4(O)C5=C(C6=C(C)C(=O)O[C@]6(OC)[C@H](O)[C@@]5(C)[C@@H]5C[C@@H]54)[C@@]34OC(=O)C(C)=C4C[C@@H]12
inhibition at 50 µM (RAW264.7 [2]): < 50%

C=C1[C@H]2C[C@H]2[C@]2(C)[C@@H]3C[C@@]4(O)C5=C(C6=C(C)C(=O)O[C@]6(O)[C@H](O)[C@@]5(C)[C@@H]5C[C@@H]54)[C@@]34OC(=O)C(C)=C4C[C@@H]12
inhibition at 50 µM (RAW264.7 [2]): < 50%

C=C1[C@H]2C[C@H]2[C@]2(C)[C@@H]3CC4=C5[C@H](/C(=C(/C)C(=O)OC)C(=O)[C@H](O)[C@@]5(C)[C@@H]5C[C@H]45)[C@@]34OC(=O)C(C)=C4C[C@@H]12
IC50 (RAW264.7 [1]): 26.5 µM

CO[C@]12OC(=O)C(C)=C1C1=C3[C@](C)([C@@H]4C[C@@H]4[C@@]3(O)C[C@@H]3[C@]14OC(=O)C1=C4C[C@H]4[C@](O)(COC(=O)/C(C)=C/COC(=O)CCC(=O)OC1)[C@H]1C[C@H]1[C@]34C)[C@H]2O
IC50 (RAW264.7 [1]): 43.2 µM

C=C1[C@H]2C[C@H]2[C@]2(C)[C@@H]3CC4=C5[C@H](/C(=C(\C)C(=O)OC)C(=O)C[C@@]5(C)[C@@H]5C[C@H]45)[C@@]34OC(=O)C(C)=C4C[C@@H]12
IC50 (RAW264.7 [1]): 24.4 µM

C/C=C(\C)C(=O)OC[C@]1(O)[C@H]2C[C@H]2[C@]2(C)[C@@H]3CC4=C5[C@H](/C(=C(\C)C(=O)OC)C(=O)[C@H](O)[C@@]5(C)[C@@H]5C[C@H]45)[C@@]34OC(=O)C(COC(=O)CCC(=O)O)=C4C[C@@H]12
IC50 (RAW264.7 [1]): 11.6 µM

C=C1[C@H]2C[C@H]2[C@@]2(C)[C@H]1[C@@H](OC(C)=O)C1=C(C)C(=O)O[C@@]13[C@@H]1C4=C(C[C@H]32)[C@H]2C[C@H]2[C@]4(C)[C@@H](O)C(=O)/C1=C(/C)C(=O)OC
IC50 (RAW264.7 [1]): 25.1 µM

C=C1[C@H]2C[C@H]2[C@@]2(C)[C@H]1[C@@H](OC(C)=O)C1=C(C)C(=O)O[C@@]13C1=C4[C@](C)([C@@H]5C[C@@H]5[C@@]4(O)C[C@H]32)[C@@H](O)C(=O)/C1=C(/C)C(=O)OC
inhibition at 50 µM (RAW264.7 [2]): < 50%

C=C1[C@H]2C[C@H]2[C@]2(C)[C@@H]3C[C@@]4(OO)C5=C(/C(=C(\C)C(=O)OC)C(=O)[C@H](O)[C@@]5(C)[C@@H]5C[C@@H]54)[C@@]34OC(=O)C(C)=C4C[C@@H]12
inhibition at 50 µM (RAW264.7 [2]): < 50%

C=C1[C@H]2C[C@H]2[C@]2(C)[C@@H]3CC4=C5[C@H](C(C(C)C(=O)OC)=C(O)C(=O)[C@@]5(C)[C@@H]5C[C@H]45)[C@@]34OC(=O)C(C)=C4C[C@@H]12 (some centres not stated)
IC50 (RAW264.7 [1]): 26.3 µM

C=C1[C@H]2C[C@H]2[C@]2(C)[C@@H]3[C@@H](O)C4=C5[C@H](/C(=C(\C)C(=O)OC)C(=O)[C@H](O)[C@@]5(C)[C@@H]5C[C@H]45)[C@@]34OC(=O)C(C)=C4C[C@@H]12
IC50 (RAW264.7 [1]): 46.5 µM

COC(=O)/C(C)=C1\C(=O)[C@H](O)[C@]2(C)C3=C(C[C@@H]4[C@]5(OC(=O)C(CO)=C5C[C@H]5[C@H](COC(C)=O)[C@H]6C[C@H]6[C@]45C)[C@H]31)[C@H]1C[C@H]12
IC50 (RAW264.7 [1]): 6.91 µM

C=C1[C@H]2C[C@H]2[C@]2(C)[C@@H]3CC4=C5[C@H](/C(=C(\C)C(=O)OC)C(=O)[C@H](O)[C@@]5(C)[C@@H]5C[C@H]45)[C@@]34OC(=O)C(C)=C4C[C@@H]12
IC50 (RAW264.7 [1]): 27 µM

O=c1c(O)c(-c2ccc(O)c(O)c2)oc2cc(O)cc(O)c12 [QUERCETIN]
IC50 (RAW264.7 [1]): 15.9 µM

COC(=O)/C(C)=C1\C(=O)[C@H](O)[C@]2(C)C3=C(C[C@@H]4[C@]5(OC(=O)C6=C5C[C@H]5[C@](O)(COC(=O)/C(C)=C/COC(=O)CCC(=O)OC6)[C@H]6C[C@H]6[C@]45C)[C@H]31)[C@H]1C[C@H]12 [SHIZUKAOL B]
IC50 (RAW264.7 [1]): 14.8 µM

COC(=O)/C(C)=C1\C(=O)[C@H](O)[C@]2(C)C3=C(C[C@@H]4[C@]5(OC(=O)C6=C5C[C@H]5[C@](O)(COC(=O)/C=C(\C)COC(=O)CCC(=O)OC6)[C@H]6C[C@H]6[C@]45C)[C@H]31)[C@H]1C[C@H]12 [SHIZUKAOL F]
IC50 (RAW264.7 [1]): 21 µM
